Data reported in patent US11208376B2, “Use of a metal supplement in animal feed” (Nouryon Chemicals International B.V., priority 2009, dated 2021).
Marks after values point to notes of the source that are not given here.

How the values were obtained:
[1] = Precipitation test of copper sources with two-fold molar excess of phytic acid, soluble Cu by FAAS; format: physicochemical; details: one day at ambient temperature
Method: The following 3 concentrations of the final metal concentration were tested, i.e. high (H) at 25 mmol/kg, medium (M) at 5 mmol/kg, and low (L) at 0.5 mmol/kg. For each concentration and pH a separate phytic acid stock solution was prepared by diluting the calculated amount of phytic acid with de-mineralized water, setting the pH with diluted NH4OH solutions, and filling up with demineralized water up to the calculated amount. […] The pH was adjusted to 4.97 with 0.5 M H2SO4. Then an equal number of 0.0125 mol/kg solutions were prepared by diluting the above solutions with demineralized water. […] On all 4 zinc-containing and 3 copper-containing solutions in total 6 precipitation tests were carried out, i.e. at levels H, M, and L and for each level at pH=4 and at pH=6. These tests were marked H4, H6, M4, M6, L4, and L6, respectively. In total 42 samples were obtained in this way. After standing for one day the precipitate was removed and the mother liquor was analyzed for its zinc or copper content by FAAS (Flame Atomic Absorption Spectroscopy). […] The total weight was exactly determined again. The 50 ml test tubes were filled according to Table 1 below.

[2] = Precipitation test of zinc sources with two-fold molar excess of phytic acid, soluble Zn by FAAS; format: physicochemical; details: for Soluble Zn(II) after subjecting complexed or chelated Zn(II) to a two-fold molar excess of phytic acid: one day at ambient temperature
Method: The following 3 concentrations of the final metal concentration were tested, i.e. high (H) at 25 mmol/kg, medium (M) at 5 mmol/kg, and low (L) at 0.5 mmol/kg. For each concentration and pH a separate phytic acid stock solution was prepared by diluting the calculated amount of phytic acid with de-mineralized water, setting the pH with diluted NH4OH solutions, and filling up with demineralized water up to the calculated amount. […] The pH was not adjusted any further. Then an equal number of 0.0125 mol/kg solutions were prepared by diluting the above solutions with demineralized water. […] On all 4 zinc-containing and 3 copper-containing solutions in total 6 precipitation tests were carried out, i.e. at levels H, M, and L and for each level at pH=4 and at pH=6. These tests were marked H4, H6, M4, M6, L4, and L6, respectively. In total 42 samples were obtained in this way. After standing for one day the precipitate was removed and the mother liquor was analyzed for its zinc or copper content by FAAS (Flame Atomic Absorption Spectroscopy). […] The total weight was exactly determined again. The 50 ml test tubes were filled according to Table 1 below.

[3] = without the presence of phytate; result in words
Method: A small excess of 2% of the complexing or chelating agent intake was used to prepare the metal-containing solutions. This ensures a complete complexation or chelation of the metal ions. The mixture was dissolved in part of the demineralized water. The pH was adjusted in order to reach a pH value between approximately 4 and 5. All solutions were filled up with demineralized water to 400 g.

[4] = H4: pH 4, metal 25 mmol/kg, phytic acid 50 mmol/kg
[5] = H6: pH 6, metal 25 mmol/kg, phytic acid 50 mmol/kg
[6] = L4: pH 4, metal 0.5 mmol/kg, phytic acid 1 mmol/kg
[7] = L6: pH 6, metal 0.5 mmol/kg, phytic acid 1 mmol/kg
[8] = M4: pH 4, metal 5 mmol/kg, phytic acid 10 mmol/kg
[9] = M6: pH 6, metal 5 mmol/kg, phytic acid 10 mmol/kg

## O=S(=O)([O-])[O-].[Cu+2] [CuSO4]
[1]; [4]
  Soluble Cu(II) after subjecting complexed or chelated Cu(II) to a two-fold molar excess of phytic acid: 64* % (mol/mol)
[1]; [5]
  Soluble Cu(II) after subjecting complexed or chelated Cu(II) to a two-fold molar excess of phytic acid: 26* % (mol/mol)
[1]; [6]
  Soluble Cu(II) after subjecting complexed or chelated Cu(II) to a two-fold molar excess of phytic acid: 97 % (mol/mol)
[1]; [7]
  Soluble Cu(II) after subjecting complexed or chelated Cu(II) to a two-fold molar excess of phytic acid: 80 % (mol/mol)
[1]; [8]
  Soluble Cu(II) after subjecting complexed or chelated Cu(II) to a two-fold molar excess of phytic acid: 97* % (mol/mol)
[1]; [9]
  Soluble Cu(II) after subjecting complexed or chelated Cu(II) to a two-fold molar excess of phytic acid: 36* % (mol/mol)

## CSCC[C@H](N)C(=O)[O-].CSCC[C@H](N)C(=O)[O-].[Zn+2] [Zn(Methionine)2]
[2]; [4]
  Soluble Zn(II) after subjecting complexed or chelated Zn(II) to a two-fold molar excess of phytic acid: 21* % (mol/mol)
[2]; [5]
  Soluble Zn(II) after subjecting complexed or chelated Zn(II) to a two-fold molar excess of phytic acid: 32* % (mol/mol)
[2]; [6]
  Soluble Zn(II) after subjecting complexed or chelated Zn(II) to a two-fold molar excess of phytic acid: 99 % (mol/mol)
[2]; [7]
  Soluble Zn(II) after subjecting complexed or chelated Zn(II) to a two-fold molar excess of phytic acid: 63 % (mol/mol)
[2]; [8]
  Soluble Zn(II) after subjecting complexed or chelated Zn(II) to a two-fold molar excess of phytic acid: 55* % (mol/mol)
[2]; [9]
  Soluble Zn(II) after subjecting complexed or chelated Zn(II) to a two-fold molar excess of phytic acid: 13* % (mol/mol)
[2]; levels H, M, L, result in words
  Appearance (clear solution or precipitate) of zinc source combined with phytic acid: immediately a precipitate was formed

## CSCC[C@H](N)C(=O)O.[Cu] [copper methionine]
[3]
  Solubility in water: insoluble in water
